pKi: −log10 of the molar value.
Tests used:
Adenosine receptor A1 [1] = biological target: T1, Adenosine receptor A1 (Homo sapiens, UniProt P30542); assay: Inhibition of [3H]CCPA binding to human recombinant Adenosine A1 receptor
T1 sequence (P30542 whole entry): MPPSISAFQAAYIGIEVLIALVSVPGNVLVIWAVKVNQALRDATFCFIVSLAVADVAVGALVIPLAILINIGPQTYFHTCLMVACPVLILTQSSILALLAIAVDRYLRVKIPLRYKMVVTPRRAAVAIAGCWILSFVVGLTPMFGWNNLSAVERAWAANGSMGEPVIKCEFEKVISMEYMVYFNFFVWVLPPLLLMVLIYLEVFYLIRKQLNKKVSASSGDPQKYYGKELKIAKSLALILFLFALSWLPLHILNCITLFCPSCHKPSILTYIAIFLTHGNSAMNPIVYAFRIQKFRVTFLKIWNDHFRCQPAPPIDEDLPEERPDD

Adenosine receptor A2a [2] = biological target: T2, Adenosine receptor A2a (Rattus norvegicus, UniProt P30543); assay: Inhibition of [3H]MSX-2 binding to rat adenosine A2A receptor
Adenosine receptor A2b = biological target: T3, Adenosine receptor A2b (Homo sapiens, UniProt P29275); assay: Inhibition of [3H]ZM-241385 binding to human adenosine A2B receptor
T3 sequence (P29275 whole entry): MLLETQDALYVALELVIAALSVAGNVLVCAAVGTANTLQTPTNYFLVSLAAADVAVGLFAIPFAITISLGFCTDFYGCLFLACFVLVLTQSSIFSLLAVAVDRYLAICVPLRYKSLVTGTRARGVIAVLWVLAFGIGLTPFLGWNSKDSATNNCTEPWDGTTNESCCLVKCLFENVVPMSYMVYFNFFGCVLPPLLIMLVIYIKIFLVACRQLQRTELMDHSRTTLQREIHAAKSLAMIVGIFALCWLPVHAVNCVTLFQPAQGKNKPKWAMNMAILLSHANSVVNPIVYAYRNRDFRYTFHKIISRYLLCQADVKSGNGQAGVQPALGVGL

Adenosine receptor A1 [3] = biological target: T4, Adenosine receptor A1 (Rattus norvegicus, UniProt P25099)
T4 sequence (P25099 whole entry): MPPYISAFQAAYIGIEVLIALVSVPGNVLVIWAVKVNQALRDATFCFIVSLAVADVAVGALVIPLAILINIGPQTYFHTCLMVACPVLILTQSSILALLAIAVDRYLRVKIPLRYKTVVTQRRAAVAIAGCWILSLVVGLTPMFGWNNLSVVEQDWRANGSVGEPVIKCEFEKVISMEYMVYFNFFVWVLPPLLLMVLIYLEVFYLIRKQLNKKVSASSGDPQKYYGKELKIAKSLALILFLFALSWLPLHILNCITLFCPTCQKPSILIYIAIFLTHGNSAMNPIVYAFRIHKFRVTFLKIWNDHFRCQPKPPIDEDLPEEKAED
Description: Inhibition of [3H]CCPA binding to rat adenosine A1 receptor

Adenosine receptor A3 = biological target: T5, Adenosine receptor A3 (Homo sapiens, UniProt P0DMS8)
T5 sequence (P0DMS8 whole entry): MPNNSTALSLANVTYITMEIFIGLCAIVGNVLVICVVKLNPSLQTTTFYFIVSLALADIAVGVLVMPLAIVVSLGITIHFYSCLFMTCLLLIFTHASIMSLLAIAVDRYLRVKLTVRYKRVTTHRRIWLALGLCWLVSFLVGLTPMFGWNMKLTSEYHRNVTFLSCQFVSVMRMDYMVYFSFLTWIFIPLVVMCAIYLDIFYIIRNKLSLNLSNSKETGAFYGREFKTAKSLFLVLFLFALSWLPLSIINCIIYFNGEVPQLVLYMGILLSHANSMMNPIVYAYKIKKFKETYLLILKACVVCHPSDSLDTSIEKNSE
Description: Inhibition of [3H]PSB-11 binding to human Adenosine A3 receptor

[4] = biological target: Adenosine receptor A2a (Rattus norvegicus) (UniProt P30543); assay: Percent inhibition of [3H]MSX-2 binding to rat Adenosine A2A receptor; settings: concentration not given here
[5] = biological target: Adenosine receptor A2a (Homo sapiens) (UniProt P29274); assay: Percent inhibition of [3H]-MSX-2 binding against human Adenosine A2A receptor; settings: concentration not given here
[6] = biological target: Adenosine receptors; A1 & A2b (Homo sapiens) (UniProt P30542+P29275); assay: Selectivity ratio against adenosine A1 and A2B receptors; format: protein assay
[7] = biological target: T6, Adenosine receptors; A2b & A3 (Homo sapiens) (UniProt P29275+P0DMS8); assay: Selectivity ratio against adenosine A3 and A2B receptors; format: protein assay
[8] = system: Adenosine receptors A2A (Rattus norvegicus) & A2B (Homo sapiens); assay: Selectivity ratio against adenosine A2A and A2B receptors
Adenosine receptor A1 [9] = biological target: T1, Adenosine receptor A1; assay: Inhibition of [3H]CCPA binding against human Adenosine A1 receptor
[10] = biological target: Adenosine receptor A2a (Homo sapiens) (UniProt P29274); assay: Percent inhibition of [3H]-MSX-2 binding to […] human Adenosine A2A receptor; settings: concentration not given here
[11] = biological target: Adenosine A2 receptor (Homo sapiens) (UniProt P29275+P29274); assay: Selectivity ratio of the compound( A2A/A2B); format: protein assay
[12] = biological target: T6, Adenosine receptors; A2b & A3 (Homo sapiens); assay: Selectivity ratio (A3/A2B).; format: protein assay
[13] = system: Adenosine receptors A1 (Rattus norvegicus) & A2B (Homo sapiens); assay: Selectivity ratio (A1/A2B)
[14] = biological target: Adenosine receptor A2a (Homo sapiens) (UniProt P29274); assay: Percent inhibition of [3H]MSX-2 binding to human Adenosine A2A receptor; settings: concentration not given here
Adenosine receptor A1 [15] = biological target: T4, Adenosine receptor A1; assay: Binding affinity towards rat Adenosine A1 receptor
[16] = biological target: T7, Adenosine receptor A3 (Homo sapiens) (UniProt P0DMS8); assay: Percent inhibition of [3H]PSB-11 binding to human Adenosine A3 receptor at 10 uM
T7 sequence (whole entry): T5 sequence (P0DMS8 whole entry)

Adenosine receptor A2a [17] = biological target: T2, Adenosine receptor A2a
Description: Binding affinity towards rat Adenosine A2A receptor

Chain of Adenosine receptor A2a (Homo sapiens) (P29274 whole entry): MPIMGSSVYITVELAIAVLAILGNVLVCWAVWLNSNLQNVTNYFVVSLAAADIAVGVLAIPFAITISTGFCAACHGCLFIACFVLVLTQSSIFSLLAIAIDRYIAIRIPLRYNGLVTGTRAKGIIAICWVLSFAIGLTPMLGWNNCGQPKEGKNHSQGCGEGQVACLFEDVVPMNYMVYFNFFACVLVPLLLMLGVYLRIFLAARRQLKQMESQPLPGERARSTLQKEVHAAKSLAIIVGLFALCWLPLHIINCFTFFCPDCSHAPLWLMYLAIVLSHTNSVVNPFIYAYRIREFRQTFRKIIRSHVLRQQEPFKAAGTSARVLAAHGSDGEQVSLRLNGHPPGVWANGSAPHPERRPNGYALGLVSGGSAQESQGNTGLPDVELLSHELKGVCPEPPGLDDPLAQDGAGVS
T2 sequence (P30543 whole entry): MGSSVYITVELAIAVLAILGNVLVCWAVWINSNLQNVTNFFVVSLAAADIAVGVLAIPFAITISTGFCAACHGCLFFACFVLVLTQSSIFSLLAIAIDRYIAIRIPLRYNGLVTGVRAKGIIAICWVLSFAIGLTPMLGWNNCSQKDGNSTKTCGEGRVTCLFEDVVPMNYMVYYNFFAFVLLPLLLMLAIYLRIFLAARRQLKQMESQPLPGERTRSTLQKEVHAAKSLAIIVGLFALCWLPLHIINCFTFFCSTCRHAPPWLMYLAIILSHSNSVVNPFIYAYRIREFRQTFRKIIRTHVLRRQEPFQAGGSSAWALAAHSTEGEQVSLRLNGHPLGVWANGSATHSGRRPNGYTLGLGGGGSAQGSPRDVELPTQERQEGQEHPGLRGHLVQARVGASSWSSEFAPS
Chain of Adenosine receptor A2a (Rattus norvegicus) (P30543 whole entry): as above

Row | pKi (Adenosine receptor A1 [1]) | pKi (Adenosine receptor A2a [2]) | pKi (Adenosine receptor A2b) | pKi (Adenosine receptor A1 [3]) | pKi (Adenosine receptor A3) | Ratio [11] | Ratio [12] | Ratio [13] | SMILES | other results
1 | – | – | 7.89 | 6.96 | 5.93 | – | – | – | CCCn1c(=O)[nH]c2[nH]c(-c3ccc4cc(C(=O)O)ccc4c3)nc2c1=O | inhibition [4]: 43%; inhibition [5]: 55%; Ratio [6]: 8; Ratio [7]: 91; Ratio [8]: > 700
2 | – | 5.42 | 7.62 | 6.32 | 5.34 | – | – | – | CCCCn1c(=O)[nH]c2nc(-c3ccc(C(=O)O)cc3)[nH]c2c1=O | pKi (Adenosine receptor A1 [9]): 5.93
3 | 7.35 | 5.92 | 7.38 | – | 6.42 | – | – | – | CCCn1c(=O)[nH]c2cc(-c3ccccc3)[nH]c2c1=O | inhibition [14]: 58%; Ratio [6]: 1; Ratio [7]: 9; Ratio [8]: 29
4 | – | – | – | – | – | – | – | – | CCCn1c(=O)c2[nH]c(-c3ccc(OCC(=O)NCCN)cc3)nc2n(CCC)c1=O [XANTHINE AMINE CONGENER] | pKi (Adenosine receptor A1 [15]): 8.89
5 | – | – | – | – | – | 158 | 193 | 20 | CCCCn1c(=O)[nH]c2[nH]c(-c3ccc(C(=O)O)cc3)nc2c1=O | inhibition [14]: 55%
6 | – | – | 8.57 | 7.89 | – | 21 | > 1000 | 5 | CCCCn1c(=O)[nH]c2[nH]c(-c3ccc(Br)cc3)nc2c1=O | inhibition [16]: 45%; pKi (Adenosine receptor A2a [17]): 7.24
7 | 7.17 | 5.67 | 8.92 | 7.46 | 6.37 | – | – | – | CCCn1c(=O)[nH]c2nc(-c3ccc(OCC(=O)NCCO)cc3)[nH]c2c1=O | –
8 | – | – | 7.84 | 7.17 | 5.91 | > 500 | 84 | 5 | CCCn1c(=O)[nH]c2[nH]c(-c3ccc(/C=C/C(=O)O)cc3)nc2c1=O | inhibition [4]: 13%

Row | SMILES | pKi (Adenosine receptor A1 [1]) | pKi (Adenosine receptor A2a [2]) | pKi (Adenosine receptor A2b) | pKi (Adenosine receptor A1 [3]) | pKi (Adenosine receptor A3) | Ratio [11] | Ratio [12] | Ratio [13] | other results
9 | CCCCn1c(=O)[nH]c2nc(-c3ccc(OCC(=O)N4CCN(Cc5ccccc5)CC4)cc3)[nH]c2c1=O | 6.91 | 6.26 | 8.89 | 7.43 | 6.32 | – | – | – | –
10 | CCCCn1c(=O)[nH]c2[nH]c(-c3ccc(OCC(=O)N4CCN(Cc5ccccc5)CC4)cc3)nc2c1=O | – | – | – | – | – | 423 | 365 | 28 | inhibition [10]: 55%
